Series [1] concerns normal human liver L-O2 cell lines. Nature of the series: MTT cytotoxicity assay, L-O2. In kind it is cell-based. The following applies: mean ± SD of three experiments, No = No inhibition detected. The method, then:
(§1) Human breast adenocarcinoma MCF-7 cell lines, human breast cancer MDA-MB-231 cell lines, and the normal human liver L-O2 cell lines were provided by Nanjing KeyGen Biotech Co. Ltd. (Nanjing, China). MCF-7 cells were cultured in a base medium (90% RPMI-1640 and 10% FBS) at 37 °C, 5% CO2 and a saturated humidity atmosphere. MDA-MB-231 cells were cultured in a base medium (90% […] and 10% FBS) at 37 °C, 5% CO2 and a saturated humidity atmosphere. L-O2 cells were cultured in a base medium (90% DMEM and 10% FBS) at 37 °C, 5% CO2 and a saturated humidity atmosphere.
(§2) The cytotoxicity of the tested compounds was determined using the 3-(4,5-dimethyl-2-thiazolyl)-2,5-diphenyl-2-H-tetrazolium bromide (MTT) assay. Cells were seeded in 96-well plates and incubated in a 5% CO2 incubator at 37 °C. When the cells adhered, compounds at different concentrations were added to every well. After incubation for another 72 h, MTT solution (5 mg/mL) was added into each well and cells were incubated for an additional 4 h. The viable cells were stained with MTT and scanned with an electrophotometer at 570 nm. Each concentration treatment was done in triplicate wells. The half maximal inhibitory concentration (IC50) values were estimated by fitting the inhibition data to a dose-dependent curve using a logistic derivative equation.
On the technique in general: Tetrazolium dyes change colour on reduction, which living cells bring about.

Series [2] deals with human breast cancer MDA-MB-231 cell lines. Briefly: MTT cytotoxicity assay, MDA-MB-231. In kind it is cell-based. As to conditions: mean ± SD of three experiments. The method, then: as §1, §2
For series [3], the system named is human breast adenocarcinoma MCF-7 cell lines. Nature of the series: MTT cytotoxicity assay, MCF-7. In kind it is cell-based. The protocol: as §1, §2
Where [4] appears, read: MTT, 72 h, mean ± SD of three experiments, read-out: IC50 MCF-7.
The mark [5] stands for this setting: Table 2, mean ± SD of three experiments, read-out: IC50 for MCF-7.
Where [6] appears, read: Homo sapiens, MCF7, MTT, 72 h, mean ± SD of three experiments, read-out: IC50 MCF-7.
[7] abbreviates: Homo sapiens, MCF7, Table 2, mean ± SD of three experiments, read-out: IC50 for MCF-7.
Where [8] appears, read: Homo sapiens, MCF7, pIC50 = −log(IC50), read-out: pIC50 for MCF-7 (converted).

Like-named read-outs stand apart in the source and are kept apart here. Where only a bound is given, the exact number is not on record here.

The results in this text go back to paper PMC7023064, “Design, Synthesis, and Evaluation of Novel 2-Methoxyestradiol Derivatives as Apoptotic Inducers through an Intrinsic Apoptosis Pathway” (Biomolecules, 2020).

Take “3-[6-(5-Methyl-Uracil-3-yl)-Hexyloxy]-2-Methoxy-Estra-1,3,5(10)-Triene-17β-ol [Compound 21a]”: the IC50 was 28.2 ± 0.57 µM in series [1] (72 h), 7.34 ± 0.56 µM in series [2] (72 h), 9.97 ± 0.39 µM in series [3] (setting [4]) and 9.97 ± 0.39 µM in series [3] (setting [5]). The “pIC50 for MCF-7” value in series [3] (pIC50 = −log(IC50)) was found to be 5.00.
As for “3-[6-(Uracil-3-yl)-Hexyloxy]-2-Methoxy-Estra-1,3,5(10)-Triene-17β-ol [Compound 20a]”, the IC50 in series [1] (72 h) is 38.5 ± 1.87 µM; in series [2] (72 h), 14 ± 1.69 µM; in series [3] (setting [4]) it was 17.9 ± 0.22 µM; in series [3] (setting [5]), 17.9 ± 0.22 µM. Further, in series [3] (pIC50 = −log(IC50)), the “pIC50 for MCF-7” value came to 4.75.
For “3-[8-(5-Methyl-Uracil-3-yl)-Octyloxy]-2-Methoxy-Estra-1,3,5(10)-Triene-17β-ol [Compound 23a]”, the IC50 in series [1] (72 h) amounted to 25.5 ± 1.86 µM; in series [2] (72 h), 12.7 ± 0.22 µM; in series [3] (setting [4]), 8.75 ± 0.22 µM; in series [3] (setting [5]), 8.75 ± 0.22 µM. Further, the “pIC50 for MCF-7” value in series [3] (pIC50 = −log(IC50)) worked out at 5.06.
For “3-[8-(Uracil-3-yl)-Octyloxy]-2-Methoxy-Estra-1,3,5(10)-Triene-17β-ol [Compound 22a]”, the IC50 in series [1] (72 h) is 25.9 ± 1.82 µM; in series [2] (72 h), 9.58 ± 0.98 µM; in series [3] (setting [4]), 10.3 ± 0.37 µM; in series [3] (setting [5]), 10.3 ± 0.37 µM. For the same molecule, the “pIC50 for MCF-7” value in series [3] (pIC50 = −log(IC50)) is given as 4.99.
Turning to “17 β-[6-(5-Methyl-Uracil-3-yl)-Hexyloxy]-2-Methoxy-Estra-1,3,5(10)-Triene-3-ol [Compound 13a]”, the IC50 is 51.4 ± 1.47 µM in series [1] (72 h), 13.3 ± 0.16 µM in series [2] (72 h), 16.6 ± 1.26 µM in series [3] (setting [4]) and 16.6 ± 1.26 µM in series [3] (setting [5]). Further, the “pIC50 for MCF-7” value in series [3] (pIC50 = −log(IC50)) stood at 4.78.
“17 β-[8-(5-Methyl-Uracil-3-yl)-Octyloxy]-2-Methoxy-Estra-1,3,5(10)-Triene-3-ol [Compound 15a]”: the IC50 stood at 52.6 ± 1.82 µM in series [1] (72 h), 19.3 ± 1.54 µM in series [2] (72 h), 12.1 ± 0.45 µM in series [3] (setting [4]) and 12.1 ± 0.45 µM in series [3] (setting [5]). For the same molecule, in series [3] (pIC50 = −log(IC50)), the “pIC50 for MCF-7” value is listed as 4.92.
For “17 β-[8-(Uracil-3-yl)-Octyloxy]-2-Methoxy-Estra-1,3,5(10)-Triene-3-ol [Compound 14a]”, the IC50 in series [1] (72 h) was determined as 17.5 ± 0.69 µM; in series [2] (72 h) it was 8 ± 0.41 µM; in series [3] (setting [4]) it was 9.22 ± 0.21 µM; in series [3] (setting [5]), 9.22 ± 0.21 µM. Further, the “pIC50 for MCF-7” value in series [3] (pIC50 = −log(IC50)) is 5.04.
For `COc1cc2c(cc1O)CC[C@@H]1[C@@H]2CC[C@]2(C)[C@@H](O)CC[C@@H]12` [Compound 1, 2-Methoxyestradiol], the IC50 is 4.7 ± 0.45 µM in series [1] (Homo sapiens, L02, 72 h); 1.86 ± 0.02 µM in series [2] (Homo sapiens, MDA-MB-231, 72 h); 1.51 ± 0.04 µM in series [3] (setting [6]); 1.51 ± 0.04 µM in series [3] (setting [7]); 1.51 µM in series [3] (setting [8]).
With `O=c1[nH]cc(F)c(=O)[nH]1` [Compound 5-FU, reference compound], the IC50 was greater than 100 µM in series [1] (72 h), 61.9 ± 2.23 µM in series [2] (72 h) and 8.87 ± 0.59 µM in series [3] (setting [4]).
For orientation: melting point means the temperature of the solid-liquid transition. For `COc1cc2c(cc1O)CC[C@@H]1[C@@H]2CC[C@]2(C)[C@@H](OCCCCCCn3ccc(=O)n(CCCCCCO[C@H]4CC[C@H]5[C@@H]6CCc7cc(O)c(OC)cc7[C@H]6CC[C@]45C)c3=O)CC[C@@H]12` [Compound 12b, 1,3-bis-{6-[2-Methoxy-3-Hydroxy-Estra-1,3,5(10)-Triene-17β-yl-oxy]-Hexyl}-Uracil], the melting point was 71 to 73 °C. Further, in series [1] (72 h), the “IC50 L-O2” value was “No ^b”. In series [2] (Homo sapiens, MDA-MB-231, 72 h), this molecule registered an IC50 greater than 100 µM. For the same molecule, the IC50 in series [3] (setting [6]) was greater than 100 µM. For the same molecule, the IC50 in series [3] (setting [7]) was greater than 100 µM. The IC50 in series [3] (setting [8]) was greater than 100 µM.
Turning to `COc1cc2c(cc1O)CC[C@@H]1[C@@H]2CC[C@]2(C)[C@@H](OCCCCCCn3cc(C)c(=O)n(CCCCCCO[C@H]4CC[C@H]5[C@@H]6CCc7cc(O)c(OC)cc7[C@H]6CC[C@]45C)c3=O)CC[C@@H]12` [Compound 13b, 1,3-Bis-{6-[2-Methoxy-3-Hydroxy-Estra-1,3,5(10)-Triene-17β-yl-oxy]-Hexyl}-5-Methyl-Uracil], the melting point lay within 84 to 86 °C. In addition, the “IC50 L-O2” value in series [1] (72 h) is “No”. The molecule further gave an IC50 in series [2] (Homo sapiens, MDA-MB-231, 72 h) greater than 100 µM. For the same molecule, the IC50 in series [3] (setting [6]) is greater than 100 µM. Moreover, the IC50 in series [3] (setting [7]) was greater than 100 µM. Moreover, the IC50 in series [3] (setting [8]) was greater than 100 µM.
